The values that follow are results of earlier work, collected in patent publication US11406602B2, “Substances for reducing occurrence of major cardiac events comprising red yeast rice extract and omega-3 polyunsaturated fatty acid or derivative thereof” (NORDIC NATURALS, INC., priority 2007, dated 2022).

For data set [1] the following is noted: prior art description of lovastatin.
The subject of another data set is patients. Conditions: 20 mg/day for 24 weeks.
The conditions of data set [2]: 10, 20, and 40 mg/day.

For `CC[C@H](C)C(=O)O[C@H]1C[C@@H](C)C=C2C=C[C@H](C)[C@H](CC[C@@H]3C[C@@H](O)CC(=O)O3)[C@H]21` [Lovastatin, lovastatin], the decrease in triglycerides (slight decreases) is given as 5-10%. Besides, the “increase in high density lipoproteins (HDL)” value (slight to moderate increases) is recorded as 10-20%. For the same compound, in data set [1], the water solubility result is reported as “water insoluble”. Besides, in the data set on patients, the “fall in total cholesterol” value was 26% and the fall in triglycerides is recorded as 12%. In addition, in data set [2], the “reduction in LDL” value is listed as 21-32% and the “reduction in total cholesterol” value is given as 16-24%. Further, the reduction in triglycerides in data set [2] (higher reduction at lower dosage) was 10 to 6%.
